In series [1] the target is human recombinant cytochrome P450 3A4 (Homo sapiens, UniProt P08684). As to the kind of experiment: Biological Test Example 6: CYP3A4 inhibition. The class given is in vitro ADME.
For series [2], the target named is human recombinant cytochrome P450 2C9 (Homo sapiens, UniProt P11712). As to the kind of experiment: biochemical.
Series [3] in a line: Biological Test Example 5: fraction unbound in human plasma (equilibrium dialysis). Format: in vitro ADME.
Series [4] has as its target human recombinant cytochrome P450 2C19 (Homo sapiens, UniProt P33261). As to the kind of experiment: Biological Test Example 8: CYP2C19 inhibition. Format: in vitro ADME.

As a reminder, the IC50 is the concentration at which inhibition is half-maximal. A word on the fraction unbound: it is the share of the substance not bound to proteins or other matrix. Low values mean extensive binding, high ones weak binding.

Sequence of human recombinant cytochrome P450 3A4 (P08684 whole entry): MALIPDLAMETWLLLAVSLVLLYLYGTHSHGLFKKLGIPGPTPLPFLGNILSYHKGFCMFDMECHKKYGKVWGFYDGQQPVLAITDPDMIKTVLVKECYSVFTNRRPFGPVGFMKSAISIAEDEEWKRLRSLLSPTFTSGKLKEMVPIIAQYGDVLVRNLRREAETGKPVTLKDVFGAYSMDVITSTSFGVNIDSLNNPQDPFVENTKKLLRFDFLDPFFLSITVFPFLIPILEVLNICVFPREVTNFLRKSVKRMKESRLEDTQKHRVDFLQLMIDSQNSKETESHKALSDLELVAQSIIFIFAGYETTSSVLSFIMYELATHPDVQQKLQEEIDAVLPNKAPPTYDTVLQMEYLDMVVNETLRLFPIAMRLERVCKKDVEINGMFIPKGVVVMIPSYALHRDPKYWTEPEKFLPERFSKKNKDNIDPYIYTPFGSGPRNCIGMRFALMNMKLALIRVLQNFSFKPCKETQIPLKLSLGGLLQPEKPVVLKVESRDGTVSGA
Sequence of human recombinant cytochrome P450 2C9 (P11712 whole entry): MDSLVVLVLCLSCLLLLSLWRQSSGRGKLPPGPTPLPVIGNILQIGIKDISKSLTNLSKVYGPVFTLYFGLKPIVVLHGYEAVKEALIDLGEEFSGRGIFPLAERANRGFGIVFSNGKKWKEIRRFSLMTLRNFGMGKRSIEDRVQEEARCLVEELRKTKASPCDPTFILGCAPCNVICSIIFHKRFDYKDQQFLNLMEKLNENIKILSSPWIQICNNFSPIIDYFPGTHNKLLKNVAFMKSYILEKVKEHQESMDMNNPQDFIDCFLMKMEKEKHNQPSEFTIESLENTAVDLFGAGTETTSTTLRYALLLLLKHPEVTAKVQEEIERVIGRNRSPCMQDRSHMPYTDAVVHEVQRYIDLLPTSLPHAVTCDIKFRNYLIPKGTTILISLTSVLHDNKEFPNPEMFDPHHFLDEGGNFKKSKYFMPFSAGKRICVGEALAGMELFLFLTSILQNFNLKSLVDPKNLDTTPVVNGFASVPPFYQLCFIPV
Sequence of human recombinant cytochrome P450 2C19 (P33261 whole entry): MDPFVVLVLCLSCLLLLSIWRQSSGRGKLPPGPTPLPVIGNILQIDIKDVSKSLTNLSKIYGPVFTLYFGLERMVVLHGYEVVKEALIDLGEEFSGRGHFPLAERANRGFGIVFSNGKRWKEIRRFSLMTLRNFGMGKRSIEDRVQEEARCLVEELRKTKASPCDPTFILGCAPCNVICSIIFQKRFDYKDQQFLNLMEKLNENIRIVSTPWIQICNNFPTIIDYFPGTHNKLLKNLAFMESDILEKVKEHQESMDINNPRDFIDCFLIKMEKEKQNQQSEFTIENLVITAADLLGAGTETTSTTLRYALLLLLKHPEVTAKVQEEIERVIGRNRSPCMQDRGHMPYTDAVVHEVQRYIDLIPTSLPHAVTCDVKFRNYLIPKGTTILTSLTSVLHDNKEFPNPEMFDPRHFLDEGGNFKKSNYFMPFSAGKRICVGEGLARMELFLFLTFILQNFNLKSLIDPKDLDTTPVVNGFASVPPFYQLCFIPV

On to `C[C@@H](c1ccc(-c2ccc(=O)n(C)c2)cc1)N1CC[C@](CC(C)(C)O)(c2ccccc2F)OC1=O` [Example 23, (S)-6-(2-fluorophenyl)-6-(2-hydroxy-2-methylpropyl)-3-((S)-1-(4-(1-methyl-6-oxo-1,6-dihydropyridin-3-yl)phenyl)ethyl)-1,3-oxazinan-2-one], for which the IC50 in series [1] and in series [2] was greater than 50 µM each time.
For the compound `C[C@@H](c1ccc(-c2ccc(=O)n(C)c2)cc1)N1CC[C@](CCCO)(c2ccccc2)OC1=O` [Example 30, (R)-6-(3-hydroxypropyl)-3-((S)-1-(4-(1-methyl-6-oxo-1,6-dihydropyridin-3-yl)phenyl)ethyl)-6-phenyl-1,3-oxazinan-2-one], in series [3], the fraction unbound was found to be 0.139.
On the same count and under the same terms, in the case of `C[C@@H](c1ccc(-c2ccc(=O)n(C)c2)cc1)N1CC[C@](CC(C)(C)O)(c2ccc(F)cc2)OC1=O` [Example 32, (S)-6-(4-fluorophenyl)-6-(2-hydroxy-2-methylpropyl)-3-((S)-1-(4-(1-methyl-6-oxo-1,6-dihydropyridin-3-yl)phenyl)ethyl)-1,3-oxazinan-2-one] it was 0.123.
Consider `C[C@@H](c1ccc(-c2ccc(=O)n(C)c2)cc1)N1CC[C@](CC(C)(C)O)(c2ccccc2)OC1=O` [Example 37, (S)-6-(2-hydroxy-2-methylpropyl)-3-((S)-1-(4-(1-methyl-6-oxo-1,6-dihydropyridin-3-yl)phenyl)ethyl)-6-phenyl-1,3-oxazinan-2-one], for which, in series [3], the fraction unbound came to 0.146.
In the case of `C[C@@H](c1ccc(-c2ccn(C)c(=O)c2)cc1)N1CC[C@](CC(C)(C)O)(c2ccccc2)OC1=O` [Example 48, (S)-6-(2-hydroxy-2-methylpropyl)-3-((S)-1-(4-(1-methyl-2-oxo-1,2-dihydropyridin-4-yl)phenyl)ethyl)-6-phenyl-1,3-oxazinan-2-one], the fraction unbound in series [3] came out at 0.087.
As to `CC[C@@H](c1ccc(-c2ccc(=O)n(CC)c2)cc1)N1CC[C@](CC(C)(C)O)(c2ccccc2)OC1=O` [Example 52, (S)-3-((S)-1-(4-(1-ethyl-6-oxo-1,6-dihydropyridin-3-yl)phenyl)propyl)-6-(2-hydroxy-2-methylpropyl)-6-phenyl-1,3-oxazinan-2-one], the figures for the IC50 in series [1] and in series [4] were 48 µM and 8 µM, respectively. In addition, the fraction unbound in series [3] worked out at 0.09.
On to `CCn1cc(-c2ccc([C@H](C)N3CC[C@](CC(C)(C)O)(c4ccccc4)OC3=O)cc2)ccc1=O` [Example 53, (S)-3-((S)-1-(4-(1-ethyl-6-oxo-1,6-dihydropyridin-3-yl)phenyl)ethyl)-6-(2-hydroxy-2-methylpropyl)-6-phenyl-1,3-oxazinan-2-one], for which, in series [3], the fraction unbound amounted to 0.128.
With `CC[C@@H](c1ccc(-c2ccc(=O)n(C)c2)cc1)N1CC[C@](CC(C)(C)O)(c2ccccc2)OC1=O` [Example 54, (S)-6-(2-hydroxy-2-methylpropyl)-3-((S)-1-(4-(1-methyl-6-oxo-1,6-dihydropyridin-3-yl)phenyl)propyl)-6-phenyl-1,3-oxazinan-2-one], the free fraction (fraction unbound) in series [3] was 0.091.
`CC[C@@H](c1ccc(-c2ccn(C)c(=O)c2)cc1)N1CC[C@](CC(C)(C)O)(c2ccccc2)OC1=O` [Example 55, (S)-6-(2-hydroxy-2-methylpropyl)-3-((S)-1-(4-(1-methyl-2-oxo-1,2-dihydropyridin-4-yl)phenyl)propyl)-6-phenyl-1,3-oxazinan-2-one]: in series [3], the fraction unbound is 0.071.
Still for that read-out and setting: as for `C[C@@H](c1ccc(-c2ccn(CC(F)(F)F)c(=O)c2)cc1)N1CC[C@](CC(C)(C)O)(c2ccccc2)OC1=O` [Example 66, (S)-6-(2-hydroxy-2-methylpropyl)-3-((S)-1-(4-(2-oxo-1-(2,2,2-trifluoroethyl)-1,2-dihydropyridin-4-yl)phenyl)ethyl)-6-phenyl-1,3-oxazinan-2-one], the figure is 0.055; as for `C[C@@H](c1ccc(-c2ccn(C3CC3)c(=O)c2)cc1)N1CC[C@](CC(C)(C)O)(c2ccccc2)OC1=O` [Example 75, 3-{(S)-1-[4-(1-Cyclopropyl-2-oxo-1,2-dihydro-pyridin-4-yl)-phenyl]-ethyl}-(S)-6-(2-hydroxy-2-methyl-propyl)-6-phenyl-[1,3]oxazinan-2-one], 0.156.
As to `COC[C@]1(c2ccccc2)CCN([C@@H](C)c2ccc(-c3ccc(=O)n(C)c3)cc2)C(=O)O1` [Example 77, (R)-6-Methoxymethyl-3-{(S)-1-[4-(1-methyl-6-oxo-1,6-dihydro-pyridin-3-yl)-phenyl]-ethyl}-6-phenyl-[1,3]oxazinan-2-one], the concentration for half-maximal inhibition (IC50) in series [1] and in series [2] was greater than 50 µM in each case.
On to “(S)-3-((S)-1-(4-(1-(difluoromethyl)-2-oxo-1,2-dihydropyridin-4-yl)phenyl)ethyl)-6-(2-hydroxy-2-methylpropyl)-6-phenyl-1,3-oxazinan-2-one [Example 5]”, for which the IC50 in series [1] turned out to be 29 µM.

Source of the values: patent publication US8138178B2, “Cyclic inhibitors of 11beta-hydroxysteroid dehydrogenase 1” (Vitae Pharmaceuticals, Inc., priority 2008, dated 2012).
